Patent US7112600B1, “Fused-ring compounds and use thereof as drugs” (Japan Tobacco Inc., priority 1999, dated 2006)
Counter-ions that a name gives are not always drawn.

Key:
[1] = blood concentration when administered to an animal; assay type: in vivo; conditions: when administered as a pharmaceutical agent to an animal; statement in words
[2] = system: HCV type 1a; assay: inhibitory activity on HCV type 1a; conditions: statement in words, no method described
[3] = system: HCV type 1b; assay: inhibitory activity on HCV type 1b; conditions: statement in words, no method described
[4] = molecular target: T1, HCV polymerase (Hepatitis C virus genotype 1b, UniProt P26663); assay: biochemical; conditions: read-out: HCV polymerase inhibitory activity IC50
T1 construct: a region encoding NS5B (591 amino acids; J Virol 1991 Mar, 65(3), 1105-13) was amplified by PCR; 6 His (N); made in house; host or cells: Escherichia coli
T1 sequence (P26663 2420-3010): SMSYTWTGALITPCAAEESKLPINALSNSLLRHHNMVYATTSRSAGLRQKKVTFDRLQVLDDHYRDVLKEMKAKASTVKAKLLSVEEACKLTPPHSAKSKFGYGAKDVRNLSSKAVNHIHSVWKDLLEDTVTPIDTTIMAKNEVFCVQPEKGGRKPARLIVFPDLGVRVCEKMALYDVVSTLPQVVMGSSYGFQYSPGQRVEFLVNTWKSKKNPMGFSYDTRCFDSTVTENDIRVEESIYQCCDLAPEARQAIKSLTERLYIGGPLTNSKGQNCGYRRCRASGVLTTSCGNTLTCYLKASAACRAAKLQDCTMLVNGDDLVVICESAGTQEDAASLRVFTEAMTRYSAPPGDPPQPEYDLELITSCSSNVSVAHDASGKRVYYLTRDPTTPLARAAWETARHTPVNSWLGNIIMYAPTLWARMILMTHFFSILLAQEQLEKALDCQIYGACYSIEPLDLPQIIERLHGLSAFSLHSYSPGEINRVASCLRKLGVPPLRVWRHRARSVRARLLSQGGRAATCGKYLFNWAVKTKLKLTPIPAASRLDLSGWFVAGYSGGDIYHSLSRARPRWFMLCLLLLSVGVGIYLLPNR
Excerpt: The evaluation of the HCV polymerase inhibitory activity of the compound of the present invention is explained in the following. This polymerase is an enzyme coded for by the non-structural protein region called NS5B on the RNA gene of HCV (EMBO J., 15:12-22, 1996).
i) Preparation of enzyme (HCV polymerase)
Using, as a template, a cDNA clone corresponding to the full length RNA gene of HCV BK strain obtained from the blood of a patient with hepatitis C, a region encoding NS5B (591 amino acids; J Virol 1991 Mar, 65(3), 1105-13) was amplified by PCR. The objective gene was prepared by adding a 6 His tag {base pair encoding 6 continuous histidine (His)} to the 5′ end thereof and transformed to Escherichia coli. The Escherichia coli capable of producing the objective protein was cultured. The obtained cells were suspended in a buffer solution containing a surfactant and crushed in a microfluidizer.
ii) Synthesis of substrate RNA
Using a synthetic primer designed based on the sequence of HCV genomic 3′ untranslated region, a DNA fragment (148 bp) containing polyU and 3′X sequence was entirely synthesized and cloned into plasmid pBluescript SK II(+) (Stratagene). The cDNA encoding full length NSSB, which was prepared in i) above, was digested with restriction enzyme KpnI to give a cDNA fragment containing the nucleotide sequence of from the restriction enzyme cleavage site to the termination codon. This cDNA fragment was inserted into the upstream of 3′ untranslated region of the DNA in pBluescript SK II(+) and ligated. The about 450 bp inserted DNA sequence was used as a template in the preparation of substrate RNA.
RNA was synthesized (37° C., 3 hr) by run-off method using this purified DNA as a template, a promoter of pBluescript SK II(+), MEGAscript RNA synthesis kit (Ambion) and T7 RNA polymerase. DNaseI was added and the mixture was incubated for 1 hr. The template DNA was removed by decomposition to give a crude RNA product.
This RNA was applied to formaldehyde denaturation agarose gel electrophoresis to confirm the quality thereof and preserved at −80° C.
iii) Assay of enzyme (HCV polymerase) inhibitory activity
A test substance (compound of the present invention) and a reaction mixture (30 μl) having the following composition were reacted at 25° C. for 90 min.
10% Trichloroacetic acid at 4° C. and 1% sodium pyrophosphate solution (150 μl) were added to this reaction mixture to stop the reaction. The reaction mixture was left standing in ice for 15 min to insolubilize RNA. This RNA was trapped on a glass filter (Whatman GF/C and the like) upon filtration by suction. This filter was washed with a solution containing 1% trichloroacetic acid and 0.1% sodium pyrophosphate, washed with 90% ethanol and is dried. A liquid scintillation cocktail (Packard) was added and the radioactivity of RNA synthesized by the enzyme reaction was measured on a liquid scintillation counter.
The HCV polymerase inhibitory activity (IC50) of the compound of the present invention was calculated from the values of radioactivity of the enzyme reaction with and without the test substance.
Reaction mixture : HCV polymerase (5 μg/ml) obtained in i), substrate RNA (10 μg/ml) obtained in ii), ATP (50 μM), GTP (50 μM), CTP (50 μM), UTP (2 μM), [5,6-^3H]UTP (46 Ci/mmol (Amersham), […]) 20 mM Tris-HCl (pH 7.5), EDTA (1 mM), MgCl2 (5 mM), NaCl (50 mM), DTT (1 mM), BSA (0.01%)

SMILES	IC50 [4] [µM]	also measured
Cl.O=C(O)c1ccc2c(c1)nc(-c1ccc(OCc3cc(N4CCCC4=O)ccc3-c3ccc(Cl)cc3)cc1F)n2C1CCCCC1 [2-{4-[2-(4-chlorophenyl)-5-(2-oxopyrrolidin-1-yl)benzyloxy]-2-fluorophenyl}-1-cyclohexylbenzimidazole-5-carboxylic acid hydrochloride]		blood concentration [1]: high blood concentration; inhibitory activity on HCV type 1a [2]: high inhibitory activity; inhibitory activity on HCV type 1b [3]: high inhibitory activity
COc1cc(CCOc2ccc(-c3nc4cc(C(=O)O)ccc4n3C3CCCCC3)cc2)cc(OC)c1OC [Example 101, 1-cyclohexyl-2-{4-[2-(3,4,5-trimethoxyphenyl)ethoxy]phenyl}-benzimidazole-5-carboxylic acid]	0.14	
O=C(O)c1ccc2c(c1)nc(-c1ccc(OCCN3c4ccccc4CCc4ccccc43)cc1)n2C1CCCCC1 [Example 116, 1-cyclohexyl-2-{4-[2-(10,11-dihydro-5H-dibenzo[b,f]azepin-5-yl)ethoxy]phenyl}benzimidazole-5-carboxylic acid]	0.37	
O=C(O)c1ccc2c(c1)nc(-c1ccc(Oc3cccc(Oc4ccccc4)c3)cc1)n2C1CCCCC1 [Example 129, 1-cyclohexyl-2-[4-(3-phenoxyphenoxy)phenyl]benzimidazole-5-carboxylic acid]	0.12	
O=C(O)c1ccc2c(c1)nc(-c1ccc(Oc3cc(-c4cccc(Cl)c4)ncn3)cc1)n2C1CCCCC1 [Example 240, 2-{4-[4-(3-chlorophenyl)-6-pyrimidinyloxy]phenyl}-1-cyclohexylbenzimidazole-5-carboxylic acid]	0.055	
COC(=O)c1ccc2c(c1)nc(-c1ccc(OCc3cc(C(=O)O)ccc3-c3ccc(Cl)cc3)cc1F)n2C1CCCCC1 [Example 281, methyl 2-{4-[5-carboxy-2-(4-chlorophenyl)benzyloxy]-2-fluorophenyl}-1-cyclohexylbenzimidazole-5-carboxylate hydrochloride]	0.052	
O=C(O)c1ccc2c(c1)nc(-c1ccc(OC(c3cccnc3)c3cccnc3)cc1F)n2C1CCCCC1 [Example 300, 2-{4-[bis(3-pyridyl)methoxy]-2-fluorophenyl}-1-cyclohexylbenzimidazole-5-carboxylic acid]	0.045	
CN(C)C(=O)c1ccc(-c2ccc(Cl)cc2)c(COc2ccc(-c3nc4cc(-c5nnn[nH]5)ccc4n3C3CCCCC3)c(F)c2)c1 [Example 434, 2-{4-[2-(4-chlorophenyl)-5-(dimethylcarbamoyl)benzyloxy]-2-fluorophenyl}-1-cyclohexyl-5-tetrazol-5-ylbenzimidazole]	0.011	
